Data reported in patent EP0442744A2, “Treatment of viral disease by glycosides” (TSUMURA & CO., priority 1990, dated 1991).

Experiments:
Herpes simplex virus = experiment: Herpes virus inhibition experiment in FL cells (polykaryotic giant cell count); type: cell-based; conditions: for minimal effective concentration: minimum concentration showing no polykaryotic giant cells after 24 hours, FL cells infected with Herpes simplex virus, read-out: Antivial activity
Method: (§1) When the experiment was started, the medium was removed from the dishes and a suspension (1 ml) containing Herpes simplex virus at the predetermined concentration in the medium was added to the dishes. The dishes were incubated in an incubator under the humidified air containing 5% CO₂ at 36°C for one hour to allow the adsorption of the viruses. Then the medium was removed and a fresh medium containing the test compounds was added. After 24 hours, the number of polykaryotic giant cells in each dish was counted and the minimum concentration showing no polykaryotic giant cells was taken as the antivirally active concentration to the herpes virus. The experiment was repeated without the virus and the minimum concentration at which cells died was taken as the cytotoxic concentration.

[1] = Cytotoxicity in FL cells (experiment repeated without the virus); conditions: human
Method: as §1

in vitro = conditions: human, fl cells
Method: as §1

Row | Compound | minimal effective concentration (Herpes simplex virus) [µg/mL] | MCC [1] [µg/mL] | Antivial activity (Herpes simplex virus) [ng/mL] | MCC at 24 h (in vitro) [µg/mL]
1 | C[C@H]1O[C@@H](O[C@H]2[C@@H](O)C[C@H](O[C@H]3[C@@H](O)C[C@H](O[C@H]4CC[C@@]5(C)[C@H](CC[C@@H]6[C@@H]5CC[C@]5(C)[C@@H](C7=CC(=O)OC7)CC[C@]65O)C4)O[C@@H]3C)O[C@@H]2C)C[C@H](O)[C@@H]1O [Compound 1, 3-[(O-2,6-dideoxy-β-D-ribo-hexopranoxyl-(1→4)-O-2,6-dideoxy-β-D-ribo-hexopyranosyl-(1→4)-2,6-dideoxy-β-D-ribo-hexopyranosyl)-oxy]-14-hydroxycard-(20)22-enolide] | 0.025 | 0.48 |  | 
2 | C[C@H]1O[C@@H](O[C@H]2[C@@H](O)C[C@H](O[C@H]3[C@@H](O)C[C@H](O[C@H]4CC[C@@]5(C)[C@H](CC[C@@H]6[C@@H]5C[C@@H](O)[C@]5(C)[C@@H](C7=CC(=O)OC7)CC[C@]65O)C4)O[C@@H]3C)O[C@@H]2C)C[C@H](O)[C@@H]1O [Compound 2, 3-[(O-2,6-dideoxy-β-D-ribo-hexopranoxyl-(1→4)-O-2,6-dideoxy-β-D-ribo-hexopyranosyl-(1→4)-2,6-dideoxy-β-D-ribo-hexopyranosyl)-oxy]-12,14-dihydroxycard-(20)22-enolide] | 0.05 | 0.48 |  | 
3 | C[C@@H]1O[C@@H](O[C@H]2C[C@@H](O)[C@]3(CO)[C@H]4[C@H](O)C[C@]5(C)[C@@H](C6=CC(=O)OC6)CC[C@]5(O)[C@@H]4CC[C@]3(O)C2)[C@H](O)[C@H](O)[C@H]1O [Compound 4, 3-[(6-deoxy-α-L-mannopyranosyl)oxy]-1,5,11α, 14,19-pentahydroxycard-20(22) enolide] | 0.04 | 0.46 |  | 
4 | C[C@H]1O[C@@H](O[C@H]2CC[C@]3(C=O)[C@H]4CC[C@]5(C)[C@@H](C6=CC(=O)OC6)CC[C@]5(O)[C@@H]4CC[C@]3(O)C2)C[C@H](O)[C@@H]1O [Compound 5] | 0.03 | 0.46 |  | 
5 | C[C@@H]1O[C@@H](O[C@H]2CC[C@]3(C=O)[C@H]4CC[C@]5(C)[C@@H](C6=CC(=O)OC6)CC[C@]5(O)[C@@H]4CC[C@]3(O)C2)[C@H](O)[C@H](O)[C@H]1O [Compound 6, 3β-[(6-deoxy-α-L-mannopyranosyl)oxy]-5,14-dihydroxy-19-oxo-5β-card-20(22) enolide] | 0.025 | 0.38 |  | 
6 | C[C@]12CC[C@H](O)C[C@H]1CC[C@@H]1[C@@H]2CC[C@]2(C)[C@@H](c3ccc(=O)oc3)CC[C@]12O [Compound 7, 3,14-dihydroxybufa-20,22-dienolide] |  |  | 8 | 0.5
